Data set [1] concerns the target T1, Nuclear factor erythroid 2-related factor 2 (Homo sapiens, UniProt Q16236).
T1 sequence (Q16236 whole entry): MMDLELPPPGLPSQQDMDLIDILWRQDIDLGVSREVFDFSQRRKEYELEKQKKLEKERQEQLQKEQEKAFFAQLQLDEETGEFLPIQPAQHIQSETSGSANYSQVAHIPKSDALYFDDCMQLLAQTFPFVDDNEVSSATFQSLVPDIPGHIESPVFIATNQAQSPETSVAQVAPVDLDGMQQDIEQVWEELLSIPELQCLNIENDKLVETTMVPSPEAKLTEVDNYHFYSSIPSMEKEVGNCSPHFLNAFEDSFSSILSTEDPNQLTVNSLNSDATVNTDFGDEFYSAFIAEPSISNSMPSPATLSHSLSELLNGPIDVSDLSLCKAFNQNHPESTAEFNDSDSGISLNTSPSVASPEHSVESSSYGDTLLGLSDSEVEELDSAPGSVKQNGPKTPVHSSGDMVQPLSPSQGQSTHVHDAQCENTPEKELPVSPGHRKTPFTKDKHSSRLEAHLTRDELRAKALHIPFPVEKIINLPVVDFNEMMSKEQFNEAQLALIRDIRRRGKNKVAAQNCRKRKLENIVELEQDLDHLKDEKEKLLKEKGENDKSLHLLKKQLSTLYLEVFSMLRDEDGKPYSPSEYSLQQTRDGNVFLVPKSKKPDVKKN
The experiment in a line: Activation of Nrf2 in human U2OS cells co-expressing Keap1 assessed as induction of Nrf2 nuclear translocation incubated for 6 hrs by PathHunter chemiluminescence based analysis. Type of data set: cell-based.

Data set [2] addresses CYP2C9 (Homo sapiens, UniProt P11712). The experiment in a line: Inhibition of CYP2C9 (unknown origin) assessed as enzyme activity at 10 uM relative to control. Type of data set: ADME. Set-up: scale not given: the % may be the effect or the level left. As to conditions: read-out: Activity.
In data set [3] the target is CYP3A4 (Homo sapiens, UniProt P08684). The experiment in a line: Inhibition of CYP3A4 (unknown origin) assessed as enzyme activity at 10 uM relative to control. Format: ADME. The arrangement: scale not given: the % may be the effect or the level left. As to conditions: read-out: Activity.
Data set [4] can be described thus: Metabolic stability of the compound in mouse liver microsomes assessed as parent compound remaining measured after 30 mins. Type of data set: ADME, Microsome. The note with it: read-out: Stability. A general note: Liver microsomes are vesicles of endoplasmic reticulum, rich in cytochrome P450 enzymes.
The target in data set [5] is T2, CYP1A2 (Homo sapiens, UniProt P05177).
T2 sequence (P05177 whole entry): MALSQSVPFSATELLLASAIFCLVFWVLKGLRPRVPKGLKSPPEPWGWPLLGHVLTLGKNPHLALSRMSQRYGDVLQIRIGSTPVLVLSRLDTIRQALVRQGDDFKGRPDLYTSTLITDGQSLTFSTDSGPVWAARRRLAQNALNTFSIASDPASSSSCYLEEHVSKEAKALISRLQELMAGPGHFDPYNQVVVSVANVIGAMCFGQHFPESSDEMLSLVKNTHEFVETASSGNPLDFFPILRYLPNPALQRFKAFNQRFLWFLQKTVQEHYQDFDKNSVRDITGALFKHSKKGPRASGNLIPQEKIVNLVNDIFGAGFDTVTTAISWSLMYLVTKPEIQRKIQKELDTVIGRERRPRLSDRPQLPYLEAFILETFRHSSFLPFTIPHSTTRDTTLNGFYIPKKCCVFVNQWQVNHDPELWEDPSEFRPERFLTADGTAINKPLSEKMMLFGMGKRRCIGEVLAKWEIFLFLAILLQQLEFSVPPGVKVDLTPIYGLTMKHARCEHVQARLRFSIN
The experiment in a line: Inhibition of CYP1A2 (unknown origin) assessed as enzyme activity at 10 uM relative to control. Format: ADME. The arrangement: scale not given: the % may be the effect or the level left. The note with it: read-out: Activity.

Data set [6] is described as follows: Metabolic stability of the compound in human plasma assessed as parent compound remaining measured after 30 mins. Format: ADME, cell-free. The note with it: read-out: Stability.
The target of data set [7] is CYP2D6 (Homo sapiens, UniProt P10635). The experiment in a line: Inhibition of CYP2D6 (unknown origin) assessed as enzyme activity at 10 uM relative to control. Format: ADME. Set-up: scale not given: the % may be the effect or the level left. The note with it: read-out: Activity.
Data set [8] is described as follows: Metabolic stability of the compound in human liver microsomes assessed as parent compound remaining measured after 30 mins. Type of data set: ADME, Microsome. The note with it: read-out: Stability.
Data set [9] is described as follows: Metabolic stability of the compound in rat plasma assessed as parent compound remaining measured after 30 mins. Format: ADME, cell-free. As to conditions: read-out: Stability.
For data set [10], the target named is CYP2C19 (Homo sapiens, UniProt P33261). The experiment in a line: Inhibition of CYP2C19 (unknown origin) assessed as enzyme activity at 10 uM relative to control. Type of data set: ADME. The arrangement: scale not given: the % may be the effect or the level left. As to conditions: read-out: Activity.

Molecules are shown by their SMILES. pEC50: −log10 of the molar value. Where a name gives a salt, the structure may show the parent alone.

Chain of CYP2D6 (P10635 whole entry): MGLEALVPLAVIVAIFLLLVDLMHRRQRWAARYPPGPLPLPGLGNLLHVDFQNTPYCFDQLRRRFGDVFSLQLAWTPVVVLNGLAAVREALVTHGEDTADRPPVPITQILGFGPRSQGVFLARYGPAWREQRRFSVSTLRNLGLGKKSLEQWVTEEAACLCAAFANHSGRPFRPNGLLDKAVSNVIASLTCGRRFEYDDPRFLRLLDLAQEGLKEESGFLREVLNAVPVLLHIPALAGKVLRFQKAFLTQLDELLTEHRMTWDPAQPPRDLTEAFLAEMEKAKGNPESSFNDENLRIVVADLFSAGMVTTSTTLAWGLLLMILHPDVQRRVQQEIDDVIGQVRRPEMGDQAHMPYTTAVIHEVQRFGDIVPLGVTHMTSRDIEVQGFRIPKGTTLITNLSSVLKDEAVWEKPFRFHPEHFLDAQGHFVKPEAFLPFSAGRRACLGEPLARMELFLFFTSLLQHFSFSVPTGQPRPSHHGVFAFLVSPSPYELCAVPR
Chain of CYP3A4 (P08684 whole entry): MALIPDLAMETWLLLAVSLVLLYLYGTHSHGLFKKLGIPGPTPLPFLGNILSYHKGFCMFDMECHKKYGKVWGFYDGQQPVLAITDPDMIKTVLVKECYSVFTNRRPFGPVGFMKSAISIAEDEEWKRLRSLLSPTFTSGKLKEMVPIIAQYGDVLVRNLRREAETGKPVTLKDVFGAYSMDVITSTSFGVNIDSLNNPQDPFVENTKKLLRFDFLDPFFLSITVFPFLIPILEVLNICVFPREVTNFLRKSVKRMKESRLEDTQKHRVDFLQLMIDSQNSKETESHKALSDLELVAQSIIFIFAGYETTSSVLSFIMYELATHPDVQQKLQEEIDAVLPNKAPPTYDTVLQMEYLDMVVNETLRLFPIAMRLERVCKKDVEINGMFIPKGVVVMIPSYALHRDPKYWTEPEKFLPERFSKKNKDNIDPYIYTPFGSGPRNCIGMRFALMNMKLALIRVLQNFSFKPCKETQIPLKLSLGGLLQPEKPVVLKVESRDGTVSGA
Chain of CYP2C9 (P11712 whole entry): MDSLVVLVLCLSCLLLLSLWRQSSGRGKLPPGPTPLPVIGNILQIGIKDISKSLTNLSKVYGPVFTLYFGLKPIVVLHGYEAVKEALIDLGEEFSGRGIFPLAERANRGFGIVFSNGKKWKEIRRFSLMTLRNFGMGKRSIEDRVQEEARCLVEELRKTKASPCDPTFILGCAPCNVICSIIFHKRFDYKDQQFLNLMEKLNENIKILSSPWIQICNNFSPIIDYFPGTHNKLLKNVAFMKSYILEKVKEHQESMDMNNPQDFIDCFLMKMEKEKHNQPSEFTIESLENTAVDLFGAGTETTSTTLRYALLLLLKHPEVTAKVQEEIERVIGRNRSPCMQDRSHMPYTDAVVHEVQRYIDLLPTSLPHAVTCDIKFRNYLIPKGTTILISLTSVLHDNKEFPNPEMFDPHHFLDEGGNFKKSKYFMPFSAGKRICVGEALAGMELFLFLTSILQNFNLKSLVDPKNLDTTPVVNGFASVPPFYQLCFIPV
Chain of CYP2C19 (P33261 whole entry): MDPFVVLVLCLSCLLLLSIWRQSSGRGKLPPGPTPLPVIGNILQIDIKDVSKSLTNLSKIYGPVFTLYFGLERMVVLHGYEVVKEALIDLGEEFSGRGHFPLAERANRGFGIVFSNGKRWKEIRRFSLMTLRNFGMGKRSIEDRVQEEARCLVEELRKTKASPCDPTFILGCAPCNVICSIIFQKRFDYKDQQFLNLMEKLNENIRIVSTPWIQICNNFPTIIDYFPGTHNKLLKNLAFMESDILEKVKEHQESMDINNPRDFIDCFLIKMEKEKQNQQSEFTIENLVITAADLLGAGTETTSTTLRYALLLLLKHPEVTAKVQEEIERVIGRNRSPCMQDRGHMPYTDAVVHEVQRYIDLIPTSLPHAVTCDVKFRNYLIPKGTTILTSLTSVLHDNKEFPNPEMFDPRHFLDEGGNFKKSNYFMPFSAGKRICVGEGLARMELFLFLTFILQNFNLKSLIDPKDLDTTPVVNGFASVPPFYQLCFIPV

With `COc1cccnc1S(=O)(=O)/C=C/c1ccccc1Cl`, in data set [1], the pEC50 was 7.12. Further, the activity at 10 µM was found to be 59.7% in data set [2]; 87.1% in data set [3]; 71.8% in [5]; 93.4% in data set [7]; 60.7% in [10]. Further, the remaining at 0.5 h was 34.4% in data set [4], 92.4% in data set [6], 83.1% in [8] and > 99% in data set [9].
`COc1cccc(S(=O)(=O)/C=C/c2ccccc2Cl)n1`: the pEC50 in [1] was 6.64. Moreover, the activity at 10 µM in data set [2] is > 99%; in data set [3], 28%; in data set [5], 6.73%; in data set [7] it was 97.6%; in data set [10], 7.7%. For the same compound, the remaining at 0.5 h in data set [4] is 4.4%; in [6], > 99%; in data set [8] it was 13.8%; in data set [9], 98.9%.
`COc1ccc(S(=O)(=O)/C=C/c2ccccc2C(F)(F)F)nc1`: the pEC50 in data set [1] was 6.61. In addition, the activity at 10 µM in [2] is > 99%; in data set [3] it was 58%; in data set [5] it was 27.8%; in data set [7], 100%; in data set [10] it was 3.7%. For the same compound, the remaining at 0.5 h worked out at 2.7% in data set [4], 99% in [6], 31.7% in data set [8] and 94.7% in data set [9].
For the compound `COc1ncccc1S(=O)(=O)/C=C/c1ncccc1C(F)(F)F`, the pEC50 in data set [1] is 6.67. In addition, the activity at 10 µM was > 99% in data set [2]; 51.7% in data set [3]; 57.3% in data set [5]; > 99% in data set [7]; 17.6% in [10]. Moreover, the remaining at 0.5 h was 29.9% in data set [4], 97.4% in data set [6], 59.4% in data set [8] and 88.6% in data set [9].
Turning to `COc1ccnc(S(=O)(=O)/C=C/c2cccnc2Cl)c1`, in [1], the negative logarithm of the EC50 (pEC50) is 7.31. Besides, the activity at 10 µM is > 99% in data set [2]; 91.5% in data set [3]; 81% in data set [5]; 99.8% in data set [7]; 30.2% in [10]. Besides, the remaining at 0.5 h in data set [4] came out at 61.4%; in data set [6] it was 99%; in [8], 76.6%; in data set [9], 91.9%.
Turning to `COc1ccc(S(=O)(=O)/C=C/c2ncccc2C(F)(F)F)nc1`, the pEC50 in data set [1] was 6.56. Also, the activity at 10 µM in [2] is > 99%; in [3], 88.9%; in [5], 61.1%; in data set [7] it was > 99%; in data set [10], 21.7%. The remaining at 0.5 h in data set [4] is 60.1%; in [6] it was 96.2%; in data set [8], 57.2%; in [9] it was 91.9%.
With `COc1cccnc1S(=O)(=O)/C=C/c1ccccc1F`, the negative-log EC50 (pEC50) in data set [1] was 6.10. Further, the activity at 10 µM in data set [2] was determined as 79.7%; in data set [3] it was 89.8%; in data set [5], 79.4%; in data set [7], 98.8%; in data set [10], 68.4%. Also, the remaining at 0.5 h in [4] came out at 63.6%; in data set [6], 95.9%; in data set [8], 89.4%; in [9], 93%.
`COc1cccnc1[S+]([O-])/C=C/c1ccccc1C(F)(F)F` (stereo unspecified): the activity at 10 µM in data set [2] was 56.3%; in data set [3], 36.9%; in [5] it was 32.8%; in data set [7], 95.9%; in data set [10] it was 32.9%. The remaining at 0.5 h in data set [4] was 5%; in data set [6] it was > 99%; in data set [8], 46.3%; in [9] it was > 99%.
On to `COc1ccnc(S(=O)(=O)/C=C/c2ccncc2Cl)c1`, for which the pEC50 in data set [1] was 7.49. Also, the activity at 10 µM in data set [2] was > 99%; in [3] it was 70.2%; in [5], 29.9%; in data set [7], 69.8%; in data set [10], 22.4%. The remaining at 0.5 h in [4] came out at 50.4%; in data set [6], 83.6%; in data set [8] it was 77.3%; in data set [9], 43.4%.
As for `COc1ccc([S+]([O-])/C=C/c2ccccc2C(F)(F)F)nc1` (stereo unspecified), the activity at 10 µM in data set [2] was > 99%; in [3], 78%; in data set [5] it was 48.8%; in data set [7], 94%; in data set [10], 2.5%. For the same compound, the remaining at 0.5 h in data set [4] was 1%; in data set [6] it was > 99%; in data set [8], 28%; in data set [9], 89%.
As to `COC(=O)/C=C/C(=O)OC` [DIMETHYL FUMARATE], in [1], the negative logarithm of the EC50 (pEC50) was 5.29.
In the case of `COc1cccc([S+]([O-])/C=C/c2ccccc2C(F)(F)F)n1` (stereo unspecified), the activity at 10 µM in data set [2] came to 78.3%; in data set [3] it was 38.3%; in data set [5], 4.9%; in data set [7], 72.6%; in data set [10] it was 5.5%. The remaining at 0.5 h came to 1.1% in data set [4], 82.4% in [6], 6.3% in [8] and 89.8% in data set [9].
In the case of `COc1cccnc1/C=C/S(=O)(=O)c1ncccc1OC`, the pEC50 in [1] is 5.73. Besides, the activity at 10 µM in data set [2] was 66.5%; in data set [3] it was > 99%; in [5], 82.1%; in data set [7], 91.9%; in data set [10], > 99%. Also, the remaining at 0.5 h in [4] and in [8] was > 99% in each case.
For the compound `COc1ccnc([S+]([O-])/C=C/c2ccccc2C(F)(F)F)c1` (stereo unspecified), the activity at 10 µM in data set [2] stood at 81.9%; in data set [3] it was 45.1%; in [5], 34.3%; in data set [7], 85.7%; in data set [10], 6.4%. Besides, the remaining at 0.5 h is 1.4% in [4], 96% in [6], 40.6% in data set [8] and 92.2% in data set [9].
For the compound `COC(=O)/C=C/C(=O)O` [MONOMETHYL FUMARATE], the negative logarithm of the EC50 (pEC50) in [1] was < 5.00.
As to `COc1ccncc1S(=O)(=O)/C=C/c1ncccc1Cl`, in [1], the pEC50 is 7.29. Further, the activity at 10 µM in [2] was > 99%; in data set [3] it was 15.7%; in data set [5], 79.5%; in data set [7] it was 88.7%; in data set [10], 42.9%. The remaining at 0.5 h was found to be 77.1% in data set [4] and 91.4% in data set [8].
As for `COc1ccncc1S(=O)(=O)/C=C/c1ccccc1C(F)(F)F`, the pEC50 in data set [1] is 6.61. For the same compound, the activity at 10 µM in data set [2] was > 99%; in data set [3], 12%; in [5], 12.1%; in data set [7], 85.1%; in [10] it was 23.5%. In addition, the remaining at 0.5 h is 71.9% in [4] and 82.9% in data set [8].
For the compound `COc1cccnc1C(=O)/C=C/c1ccccc1C(F)(F)F`, the activity at 10 µM in data set [2] was > 99%; in [3], 27.4%; in [5], 3.7%; in data set [7], 91.3%; in data set [10], 8.2%. For the same compound, the remaining at 0.5 h in [4] amounted to 1.4%; in [6] it was 96.5%; in data set [8] it was 1%; in [9], 94.3%.

For orientation: pEC50 means the negative decadic logarithm of the EC50, by convention in mol/L.

The record behind these values is ChEMBL document CHEMBL5370549, “Optimization and evaluation of pyridinyl vinyl sulfones as Nrf2 activator for the antioxidant and anti-inflammatory effects” (Eur J Med Chem, 2023).
